Where two headings read alike, the source gives them in different places.
What was measured:
[1] = system: M. haemolytica; experiment: In-vitro MIC model (CLSI broth micro-dilution); assay type: cell-based, Mannheimia haemolytica; conditions: for MIC: Mannheimia haemolytica, read-out: Comparative MIC
[2] = system: P. multocida; experiment: In-vitro MIC model (CLSI broth micro-dilution); assay type: cell-based, Pasteurella multocida; conditions: for MIC: Pasteurella multocida, read-out: Comparative MIC
[3] = system: S. aureus (29213 ATCC); experiment: In-vitro MIC model (CLSI broth micro-dilution); assay type: cell-based; conditions: for MIC: Staphylococcus aureus, read-out: Comparative MIC
[4] = system: P. multocida 46572; experiment: In vivo mouse lung infection challenge model (murine); set-up: species or system CD-1 female mice; conditions: 46572, sc, 20 mg/kg, 240 h
Experimental: The challenge organism was P. multocida 46572. Target challenge concentration was 5×10^2 CFU/mouse. Isolated colonies from overnight growth (37° C. with 5% CO2) on trypticase soy agar (TSA II) blood plates were transferred to room temperature Brain Heart Infusion Broth (BHIB). The broth culture was incubated 3.5-4 hours to approximately mid-log phase of growth, as measured by forward light scatter at 600 nm (OD600, 0.200). The culture was centrifuged to collect the bacterial pellet. The pellet was re-suspended in BHIB and adjusted to provide an approximate concentration of 2.7 log^10 colony forming units (CFU) in 0.04 mL at the highest concentration. The challenge inoculum concentration was confirmed by serial dilutions of the inoculum for CFU enumeration. On Day −5, CD-1 female mice were received. Mice were given standard rodent diet and water ad libitum. On Day 0, bacterial inoculum (0.04 mL) was administered to each mouse (n=36) intranasally. Compounds of the invention were dosed at 20 mg/kg (0.1 mL) in a buffered (˜pH 5.4) propylene glycol, monothioglycerol and water solution by subcutaneous injection. Animals were observed from Days 1-10. The study was terminated on Day 10. In addition, some treatment groups were sampled at 6, 24, and 48 hours post bacterial challenge for RNA sequence analysis of lung tissue.
The murine efficacy model (P. multocida challenge) was optimized, and the treatment group size was powered to be able to observe statistically significant improvement of survival to expected ranges for immunomodulatory compounds. The experimental design was a randomized complete block design. Mice were individually identified and treatment groups comingled within a cage, with every treatment group equally represented across cages. Mortality was the primary variable. Mortality data was analyzed using a generalized mixed model with fixed effect of treatment and random effect of block. Survival time was also analyzed using the SAS PHREG (survival analysis) procedure to examine whether there were significant differences between treatment groups and the control group. Numerous compounds of the invention and M9 (positive control) were tested in this model at a dose of 20 mg/kg (Table 3). Typical percent survival for no treatment control is in the range of 0-20% based on study to study variation in challenge inoculum and rate of infection. […] Mouse survival for M9 was about 90-100%, further supporting its residual antibacterial properties against the bacterial strain. Harmonized survival accounts for % survival relative to vehicle (“−” control) and M9 (“+” control)) survival data (Table 3).

[5] = system: TNF-α; experiment: Whole blood assay, LPS stimulation, MSD cytokine detection; assay type: cell-based; conditions: fresh whole bovine blood
[6] = system: IL-1β; experiment: as above; assay type: cell-based, bovine; conditions: fresh whole bovine blood, LPS stimulation; drug concentration giving overstimulation (OS) of IL-1β
[7] = system: IL-6; experiment: as above; assay type: cell-based; conditions: Bos taurus, fresh whole bovine blood
[8] = system: M. haemolytica (OSU-012103-BHI); conditions: inhaled or nasal
[9] = system: P. multocida; experiment: Murine P. multocida intranasal challenge study, survival; assay type: in vivo, mice; conditions: 5×10^3 CFU/mouse; subcutaneous 18 hours after challenge; tulathromycin 16 mg/kg, M9 32 mg/kg, ceftiofur 9 mg/kg
[10] = system: H. somni (A700025K); experiment: In-vitro MIC model (CLSI broth micro-dilution); assay type: cell-based, Histophilus somni
[11] = system: IL-6; experiment: Plasma IL-6 biomarker in bovine M. haemolytica challenge
[12] = M. haemolytica 46571, bovine efficacy challenge strain
[13] = P. multocida 46572, murine efficacy challenge strain

SMILES: CC[C@H]1OC(=O)[C@H](C)[C@@H](O)[C@H](C)[C@@H](O[C@@H]2O[C@H](C)C[C@H](NC)[C@H]2Oc2ccc(OC)cc2)[C@](C)(O)C[C@@H](C)CN[C@H](C)[C@@H](O)[C@]1(C)O [Example B-6, (2R,3S,4R,5R,8R,10R,11R,12S,13S,14R)-2-ethyl-3,4,10,13-tetrahydroxy-11-(((2S,3R,4S,6R)-3-(4-methoxyphenoxy)-6-methyl-4-(methylamino)tetrahydro-2H-pyran-2-yl)oxy)-3,5,8,10,12,14-hexamethyl-1-oxa-6-azacyclopentadecan-15-one]
- MIC ([1]; M. haemolytica 12726): > 64 µg/mL
- MIC ([1]; M. haemolytica 33396): > 64 µg/mL
- MIC [1, 12]: > 64 µg/mL
- MIC ([2]; P. multocida 43137): > 64 µg/mL
- MIC [2, 13]: > 64 µg/mL
- MIC [3]: > 64 µg/mL
- % Survival [4]: 1%

SMILES: CCCNC[C@]1(O)[C@H](C)O[C@@H](O[C@H]2[C@H](C)[C@@H](O[C@@H]3O[C@H](C)C[C@H](NC)[C@H]3Oc3cccc(OCC)c3)[C@](C)(O)C[C@@H](C)CN[C@H](C)[C@@H](O)[C@](C)(O)[C@@H](CC)OC(=O)[C@@H]2C)C[C@@]1(C)OC [Example E-13]
- Comparative MIC ([1]; M. haemolytica 12726): >64 µg/mL
- Comparative MIC ([1]; M. haemolytica 33396): >64 µg/mL
- Comparative MIC [1, 12]: >64 µg/mL
- Comparative MIC ([2]; P. multocida 43137): >64 µg/mL
- Comparative MIC [2, 13]: >64 µg/mL
- Comparative MIC [3]: >64 µg/mL
- IC50 [5]: 30 µM
- IL-1ß OS of LPS [6]: 40 µM

SMILES: CCCNC[C@]1(O)[C@H](C)O[C@@H](O[C@H]2[C@H](C)[C@@H](O[C@@H]3O[C@H](C)C[C@H](NC)[C@H]3Oc3ccccc3)[C@](C)(O)C[C@@H](C)CN[C@H](C)[C@@H](O)[C@](C)(O)[C@@H](CC)OC(=O)[C@@H]2C)C[C@@]1(C)OC [Example E-112, (2R,3S,4R,5R,8R,10R,11R,12S,13S,14R)-2-ethyl-3,4,10-trihydroxy-13-(((2R,4R,5S,6S)-5-hydroxy-4-methoxy-4,6-dimethyl-5-((propylamino)methyl)tetrahydro-2H-pyran-2-yl)oxy)-3,5,8,10,12,14-hexamethyl-11-(((2S,3R,4S,6R)-6-methyl-4-(methylamino)-3-phenoxytetrahydro-2H-pyran-2-yl)oxy)-1-oxa-6-azacyclopentadecan-15-one]
- MIC ([1]; M. haemolytica 12726): > 64 µg/mL
- MIC ([1]; M. haemolytica 33396): > 64 µg/mL
- MIC [1, 12]: > 64 µg/mL
- MIC ([2]; P. multocida 43137): > 64 µg/mL
- MIC [2, 13]: > 64 µg/mL
- MIC [3]: > 64 µg/mL
- IC50 ([5]; Bos taurus): 10 µM
- IL-1ß OS of LPS [6]: 80 µM
- IC50 [7]: 40 µM
- % Survival [4]: 53%
- lung lesion scores ([8]; 0.01 mg/kg): 39
- lung lesion scores ([8]; 0.05 mg/kg): 41
- lung lesion scores ([8]; 0.1 mg/kg): 27

SMILES: CCCNC[C@]1(O)[C@H](C)O[C@@H](O[C@H]2[C@H](C)[C@@H](O[C@@H]3O[C@H](C)C[C@H](N(C)C(=O)N4CCN(CC)CC4)[C@H]3Oc3ccc(OC)c(OCC)c3)[C@](C)(O)C[C@@H](C)CN[C@H](C)[C@@H](O)[C@](C)(O)[C@@H](CC)OC(=O)[C@@H]2C)C[C@@]1(C)OC [Example G-3]
- Comparative MIC ([1]; M. haemolytica 12726): >64 µg/mL
- Comparative MIC ([1]; M. haemolytica 33396): >64 µg/mL
- Comparative MIC [1, 12]: >64 µg/mL
- Comparative MIC ([2]; P. multocida 43137): >64 µg/mL
- Comparative MIC [2, 13]: >64 µg/mL
- Comparative MIC [3]: >64 µg/mL

SMILES: CO/N=C(\C(=O)N[C@@H]1C(=O)N2C(C(=O)O)=C(CSC(=O)c3ccco3)CS[C@H]12)c1csc(N)n1 [ceftiofur]
- Survival at Day 7 [9]: ~90%

SMILES: CCCN1C[C@H](C)[C@@H](O)[C@](C)(O)[C@@H](CC)OC(=O)[C@H](C)[C@@H](O[C@H]2C[C@@](C)(OC)[C@@H](O)[C@H](C)O2)[C@H](C)[C@@H](O[C@@H]2O[C@H](C)C[C@H](N(C)C)[C@H]2O)[C@](C)(O)C[C@H]1C [gamithromycin, reference compound]
- MIC, M. haemolytica strains ([1]; screening panel strains): 0.5 to 1 µg/mL
- MIC, P. multocida strains ([2]; screening panel strains): 1 to 2 µg/mL
- MIC, H. somni strains [10]: 0.25 to 8 µg/mL

SMILES: CCCNC[C@]1(O)[C@H](C)O[C@@H](O[C@H]2[C@H](C)[C@@H](O[C@@H]3O[C@H](C)C[C@H](N(C)C)[C@H]3O)[C@](C)(O)C[C@@H](C)CN[C@H](C)[C@@H](O)[C@](C)(O)[C@@H](CC)OC(=O)[C@@H]2C)C[C@@]1(C)OC [tulathromycin, (2R,3S,4R,5R,8R,10R,11R,12S,13S,14R)-11-(((2S,3R,4S,6R)-4-(dimethylamino)-3-hydroxy-6-methyltetrahydro-2H-pyran-2-yl)oxy)-2-ethyl-3,4,10-trihydroxy-13-(((2R,4R,5S,6S)-5-hydroxy-4-methoxy-4,6-dimethyl-5-((propylamino)methyl)tetrahydro-2H-pyran-2-yl)oxy)-3,5,8,10,12,14-hexamethyl-1-oxa-6-azacyclopentadecan-15-one]
- Survival at Day 7 [9]: about 80%
- IL-6 levels [11]: significantly reduced

— patent US12390441B2, “Immunomodulating o-het/aryl azalides” (Zoetis Services LLC, priority 2020, dated 2025)
